Measurements taken from patent US10251927B2, “Process to enhance the bioactivity of Ashwagandha extracts” (priority 2015, dated 2019).
Where “and” joins values, the source holds several entries; their conditions need not be identical. Equal values may be shown once. Read-outs that look alike come from different tables or passages of the source.

Experiments:
[1] = system: Albino Wistar rats; assay: Anoxia stress tolerance test (Example 16); type: in vivo, rat; conditions: 2 mg/kg p.o.
Protocol: Albino Wistar rats of either sex weighing 150-220 g were selected and divided into 11 groups of six each and following treatment was given after one week of acclimatization:
Animals were treated as shown above for the 3 weeks. At the end of 1st, 2nd and 3rd week i.e. on 7th, 14th and 21st day 1 h after the treatment stress was induced by placing each animal individually in the hermetic vessel of 1 L capacity to record anoxia tolerance time. The time duration of entry of the animal into the hermetic vessel and the appearance of the first convulsion was taken as time of anoxia.

[2] = system: wistar rats; assay: Carrageenan induced paw edema model (Example 16); type: in vivo; conditions: Rattus norvegicus, po, 10 mg/kg p.o. single dose, read-out: Percentage inhibition (%) of inflammation
Protocol: Fourty five wistar rats were divided into nine groups (n=5). Following treatment was given to the rats as single dose: […] The percentage inhibition of edema was calculated for each group with respect to the vehicle received control group of animals.

[3] = system: rats; assay: Forced swim test after reserpine injection, enteric and nonenteric coated extracts (Example 14); type: in vivo, rat; conditions: Reserpine 6 mg/kg i.p.; 10 mg/kg p.o.; vehicle 250, normal control 120
Protocol: 92 rats were divided into twenty three groups. Each group had 4 rats. The animals were trained for swimming test (15 minutes) as pre-test session and then fasted overnight. To the fasted animals, reserpine (6 mg/kg) was injected i.p. to depress the animals. After 1 hour of reserpine injection, the test samples/standard was fed orally as designated dose. After 1 hour of test sample/standard, the rats were tested using forced swim test and duration of immobility in the 5 minutes test session was recorded.

[4] = system: rats; assay: Forced swim test after reserpine, different percentage of enteric coating (Example 31); type: in vivo, rat; conditions: Reserpine 6 mg/kg i.p.; 10 mg/kg p.o.; test after 2 hour; vehicle 250, normal control 120
Protocol: Efficacy Study of Different Ashwagandha Extracts Granules with Different Percentage of Enteric Coating. 44 rats were divided into 11 groups comprising of 4 rats in each group. The animals were trained for swimming test (15 minutes) as pre-test session and then fasted overnight. To the fasted animals, reserpine (6 mg/kg) was injected i.p. to depress the animals. Immediately after the reserpine injection, the test samples (ashwagandha root powder) with different percentage of enteric coating/standard were fed orally as designated dose. After 2 hour of test sample/standard, the rats were tested using forced swim test and duration of immobility in the 5 minutes test session was recorded. In this test more immobility time indicate that animal is more depressed or stressed.
The test was repeated with different percentage of coated ashwagandha extract containing 3.5% withanolide glycosides and different percentage of coated ashwagandha extract containing 35% and 80% withanolide glycosides.

[5] = system: rats; assay: Forced swim test after reserpine injection, different Ashwagandha extracts (Example 13); type: in vivo, rat; conditions: Reserpine 6 mg/kg i.p.; 10 mg/kg p.o.; vehicle 210, normal control 120
Protocol: 44 rats were divided into eleven groups having 4 rats in each group. The animals were trained for swimming test (15 minutes) as pre-test session and then fasted overnight. To the fasted animals, reserpine (6 mg/kg) was injected i.p. to depress the animals. After 1 hour of reserpine injection, the test samples/standard was fed orally as designated dose.

[6] = system: rats; assay: Forced swim test after reserpine, powder/extracts treated at different pH (Example 29); type: in vivo, rat; conditions: Reserpine 6 mg/kg i.p.; 10 mg/kg p.o.; vehicle 250, normal control 120
Protocol: Ashwagandha powder/extract was added to different buffer(pH 1,2,3,5,7 and 7.4) in 1:20 ratio of Ashwagandh powder/extract: buffer. The extract -buffer solution was kept in a waterbath at 37° C. for 2 hrs. The solution was neutralised by adding base or acid solution. The neutralised solution was concentrated and dried.
The animals were trained for swimming test (15 minutes) as pre-test session and then fasted overnight. To the fasted animals, reserpine (6 mg/kg) was injected i.p. to depress the animals. After 1 hour of reserpine injection, the test samples treated at different pH/standard were fed orally as designated dose. After 1 hour of test sample/standard, the rats were tested using forced swim test and duration of immobility in the 5 minutes test session was recorded. In this test more immobility time indicate that animal is more depressed or stressed.

[7] = system: rats; assay: Forced swim test after reserpine, normal (film), enteric and delayed release coating (Example 30); type: in vivo, rat; conditions: Reserpine 6 mg/kg i.p.; 10 mg/kg p.o.; test after 2 hour; vehicle 250, normal control 120
Protocol: 60 rats were divided into 15 groups comprising of 4 rats in each group. The animals were trained for swimming test (15 minutes) as pre-test session and then fasted overnight. To the fasted animals, reserpine (6 mg/kg) was injected i.p. to depress the animals. Immediately after reserpine injection, the test samples with normal (Hydroxy Propyl Cellulose; HPC), enteric (Eudragit) and delayed release (High percentage of Eudragit) coating/standard were fed orally as designated doses. After 2 hour of test sample/standard, the rats were tested using forced swim test and duration of immobility in the 5 minutes test session was recorded. In this test more immobility time indicate that animal is more depressed or stressed.

[8] = system: streptozotocin induced diabetic rats; assay: Antidiabetic activity of coated extracts in different doses in streptozotocin induced diabetic rats (Example 33); type: in vivo, rat; conditions: STZ diabetic rats
Protocol: Different Ashwagandha extracts with coating in different dosages was evaluated for antidiabetic activity in experimental rats. Male/Female albino wistar rats were maintained as per standard guidelines: housed in polypropylene cages, under 12 hour artificial light and dark cycles at a temperature of 24±2° C., given a standard pellet diet and water ad libitum. The animals were acclimatized to the animal house conditions for a week before beginning the experiment. Diabetes was induced by injecting streptozotocin 35 mg/kg dissolved in 0.1 M citrate buffer of pH 4.5, intra-peritoneally. Five days after induction of diabetes (day 1 of the study), animals were fasted for 12 hours and the fasting blood glucose level (FBG) was estimated for diagnosing diabetic rats. Animals with FBG above 200 mg/dl were considered diabetic. The diabetic animals were randomly divided into 13 groups of 4 animals each.
Fasting blood glucose level and body weight of rats was measured initially and then at Day 7, Day 14, Day 21 and Day 28 of the study.

[9] = system: streptozotocin induced diabetic rats; assay: Antidiabetic activity in streptozotocin induced diabetic rats (Example 32); type: in vivo, rat; conditions: STZ diabetic rats
Protocol: Male/Female albino wistar rats were maintained as per standard guidelines: housed in polypropylene cages, under 12 hour artificial light and dark cycles at a temperature of 24±2° C., given a standard pellet diet and water ad libitum. The animals were acclimatized to the animal house conditions for a week before beginning the experiment. Diabetes was induced by injecting streptozotocin 35mg/kg dissolved in 0.1 M citrate buffer of pH 4.5, intra-peritoneally. […] Animals with FBG above 200 mg/dl were considered diabetic. The diabetic animals were randomly divided into 13 groups of six animals each. One normal group was also included comprising of six normal rats.

[10] = before treatment, group 0.5 mg/kg

Structure (SMILES): CN1C(=O)CN=C(c2ccccc2)c2cc(Cl)ccc21 [Diazepam]
- Duration of anoxia stress tolerance ([1]; First week): 34.50 min
- Duration of anoxia stress tolerance ([1]; Second week): 37.33 min
- Duration of anoxia stress tolerance ([1]; Third week): 37.00 min

Structure (SMILES): COc1ccc2c(c1)c(CC(=O)O)c(C)n2C(=O)c1ccc(Cl)cc1 [Indomethacin]
- inhibition at 10 mg/kg ([2]; 0.5 hr): 28%
- inhibition at 10 mg/kg ([2]; 1 hr): 65%
- inhibition at 10 mg/kg ([2]; 2 hr): 80%
- inhibition at 10 mg/kg ([2]; 3 hr): 86%

Structure (SMILES): CNCCC(Oc1ccc(C(F)(F)F)cc1)c1ccccc1 (centres unmarked) [Fluoxetine]
- Immobility time [3]: 122 s
- Immobility time [4]: 120 s
- Immobility time [5]: 122 s
- Immobility time [6]: 122 s and 120 s
- Immobility time [7]: 120 s

Structure (SMILES): COc1ccc(Cl)cc1C(=O)NCCc1ccc(S(=O)(=O)NC(=O)NC2CCCCC2)cc1 [Glibenclamide]
- Fasting blood glucose (FBG) level after 28 days ([8]; 0.5 mg/kg for 28 days): 125 mg/dL
- Fasting Blood Glucose level ([8]; Day 1 (Initial), standard drug): 423 mg/dL
- Fasting Blood Glucose level ([8]; Day 7, standard drug): 381 mg/dL
- Fasting Blood Glucose level ([8]; Day 14, standard drug): 246 mg/dL
- Fasting Blood Glucose level ([8]; Day 21, standard drug): 197 mg/dL
- Fasting Blood Glucose level ([8]; Day 28, standard drug): 125 mg/dL
- Fasting blood glucose (FBG) level, initial [8, 10]: 423 mg/dL
- Fasting blood glucose (FBG) level after 28 days ([9]; 0.5 mg/kg for 28 days): 124 mg/dL
- Fasting Blood Glucose level ([9]; Day 1 (Initial), standard drug): 422 mg/dL
- Fasting Blood Glucose level ([9]; Day 7, standard drug): 380 mg/dL
- Fasting Blood Glucose level ([9]; Day 14, standard drug): 245 mg/dL
- Fasting Blood Glucose level ([9]; Day 21, standard drug): 196 mg/dL
- Fasting Blood Glucose level ([9]; Day 28, standard drug): 124 mg/dL
- Fasting blood glucose (FBG) level, initial [9, 10]: 422 mg/dL
